Measured values as given in US8957062B2, “Substituted cyclopropyl compounds, compositions containing such compounds and methods of treatment” (Merck Sharp & Dohme Corp., priority 2011, dated 2015).

biological target: T1, human GPR119 (Homo sapiens, UniProt Q8TDV5); assay: Measurement of GPR119 signaling (cAMP assay) in cells stably transfected with human GPR119; type: cell-based; details: cAMP stimulation; read-out: GPR119 HumC EC50
T1 sequence (Q8TDV5 1-308 limits assumed): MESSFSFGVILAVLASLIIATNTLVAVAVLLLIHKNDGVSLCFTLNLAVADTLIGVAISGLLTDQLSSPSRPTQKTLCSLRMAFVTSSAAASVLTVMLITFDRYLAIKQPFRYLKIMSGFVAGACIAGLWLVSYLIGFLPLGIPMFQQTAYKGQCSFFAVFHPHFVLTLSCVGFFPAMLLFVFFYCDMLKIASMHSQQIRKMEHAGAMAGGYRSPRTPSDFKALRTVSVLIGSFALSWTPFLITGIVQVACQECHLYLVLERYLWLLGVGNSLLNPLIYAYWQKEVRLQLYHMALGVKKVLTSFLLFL
Protocol: Measurement of GPR119 Signaling (Cyclic AMP (cAMP) Assay)
The adenylate cyclase assay was constructed following the LANCE™ cAMP Kit (Perkin Elmer, AD0264) instructions.
The reaction was stopped by incubating with the supplied detection buffer containing the europium chelate of the Eu-SA/Biotin-cAMP tracer for 3 hours. The assay was performed in duplicate in a 384 well plate for duplicate plates and fluorescence was measured at 665 nm. Basal activity was determined using a DMSO control and maximum response was defined as cAMP stimulation produced by an internal agonist control. Standard cAMP concentrations were assayed concurrently for conversion of fluorescence signal to cAMP level. The data was analyzed using 4-parameter curve fit in Microsoft Excel.
Measurement of GPR119 Signaling (cAMP Homogenous Time Resolved Fluorescence (HTRF) Assay)
Chinese hamster ovary (CHO) cell lines stably transfected with the permissive guanine nucleotide binding protein alpha 15 (Gα15) and murine GPR119 were maintained in DMEM media containing FBS, penicillin-streptomycin, puromycin, and G418 (geneticin). […] Agonist activation of the GPR119 receptor was measured in receptor transfected cells described above, treated with compounds of this invention, using a commercial homogenous time resolved fluorescence (HTRF) kit for measurement of cAMP (CisBio, Bedford, Mass.). The assay was performed in 96-well half-volume plates (murine) or 384-well plates (human) following the manufacturers instructions. Briefly, suspended cells were incubated with a dose titration of test compound at RT for 60 min, lysed, and incubated with HTRF reagents for an additional 60 min. The plate was read using an Envision multilabel reader (Perkin Elmer) adjusted to read time resolved fluorescence and the cAMP concentrations were extrapolated from a cAMP calibration curve. […] The concentration of test compound required to stimulate a half-maximal response (EC50), and efficacy as compared to an internal agonist control, was determined from a sigmoidal 4-parameter curve fit of the resulting plot of normalized activity versus compound concentration.

EC50 | SMILES
2.6 nM | COCc1noc(N2CCC([C@H]3C[C@H]3CCOc3ccc(CC(=O)N4CCC4)c(Cl)c3)CC2)n1 [Example 104]
2.2 nM | O=C(Cc1ccc(OCC[C@@H]2C[C@@H]2C2CCN(C(=O)OCC3CCC3)CC2)cc1F)N1CCC1 [Example 73]

same assay, conditions: stated in the example text; cAMP stimulation, human GPR119; read-out: GPR119 Human EC50

EC50 | SMILES
1.6 nM | CC(C)c1nc(N2CCC([C@H]3C[C@H]3CCOc3ccc(CC(=O)N4CC(O)C4)c(F)c3)CC2)no1 [Example 255, 1-[(2-fluoro-4-{2-[(1S,2R)-2-{1-(5-isopropyl-1,2,4-oxadiazol-3-yl)piperidin-4-yl}cyclopropyl]ethoxy}phenyl)acetyl]azetidin-3-ol]
0.9 nM | COCc1noc(N2CCC([C@@H]3C[C@@H]3CCOc3ccc(S(C)(=O)=O)cc3F)CC2)n1 (stereo in doubt) [Example 220, 4-((1S,2R)-2-{2-[2-fluoro-4-(methylsulfonyl)phenoxy]ethyl}cyclopropyl)-1-[3-(methoxymethyl)-1,2,4-oxadiazol-5-yl]piperidine]
1.4 nM | COCc1noc(N2CCC([C@H]3C[C@H]3CCOc3cc(F)c(CC(=O)N4CC(F)C4)c(F)c3)CC2)n1 [Example 116, 4-[(1R,2S)-2-(2-{3,5-difluoro-4-[2-(3-fluoroazetidin-1-yl)-2-oxoethyl]phenoxy}ethyl)cyclopropyl]-1-[3-(methoxymethyl)-1,2,4-oxadiazol-5-yl]piperidine]
0.9 nM | CC(C)(C)OC(=O)N1CCC([C@H]2C[C@H]2CCOc2ccc(S(C)(=O)=O)cc2)CC1 [Example 35, tert-butyl 4-((1R,2S)-2-{2-[4-(methylsulfonyl)phenoxy]ethyl}cyclopropyl) piperidine-1-carboxylate]

same assay, conditions: table column; cAMP stimulation, human GPR119; read-out: GPR119 Human EC50

EC50 | SMILES
4.6 nM | CS(=O)(=O)c1ccc(OCC[C@@H]2C[C@@H]2C2CCN(C(=O)CC3CCCC3)CC2)cc1F [Example 93]
6 nM | CS(=O)(=O)c1ccc(OCC[C@@H]2C[C@@H]2C2CCN(c3nc(C4CC4)no3)CC2)nc1 [Example 210]
3.9 nM | CC(C)c1noc(N2CCC([C@H]3C[C@H]3CCOc3ccc(CC(=O)NCC(F)(F)F)c(F)c3)CC2)n1 [Example 157]
2 nM | CCOC(=O)N1CCC([C@H]2C[C@H]2CCOc2ccc(-n3cnnn3)cc2)CC1 [Example 6]
16 nM | CS(=O)(=O)c1ccc(OCC[C@@H]2C[C@@H]2C2CCN(C(=O)CC3CC4C=CC3C4)CC2)nc1 (stereo partly shown) [Example 90]
2.9 nM | CC(C)c1noc(N2CCC([C@H]3C[C@H]3CCOc3ccc(CC(=O)N4CCc5[nH]nnc5C4)c(F)c3)CC2)n1 [Example 197]
0.93 nM | CC(C)c1noc(N2CCC([C@H]3C[C@H]3CCOc3ccc(CC(=O)N4Cc5cccnc5C4)c(F)c3)CC2)n1 [Example 159]
3.6 nM | CCOC(=O)N1CCC([C@H]2C[C@H]2CCOc2cc(C#N)nc(C)n2)CC1 [Example 45]
49 nM | CS(=O)(=O)c1ccc(OCC[C@@H]2C[C@@H]2C2CCN(c3nnc(-c4ccccc4)o3)CC2)nc1 [Example 250]
11 nM | COc1cc(OCC[C@@H]2C[C@@H]2C2CCN(c3nc(C(C)C)no3)CC2)ccc1-n1cnnn1 [Example 125]
5 nM | CS(=O)(=O)c1ccc(OCC[C@@H]2C[C@@H]2C2CCN(C(=O)OCC3CCC3)CC2)nc1 [Example 22]
6.4 nM | COCc1noc(N2CCC([C@H]3C[C@H]3CCOc3ccc(-c4nnn(C)n4)cc3)CC2)n1 [Example 224]
1.8 nM | CCN(CC)C(=O)Cc1ccc(OCC[C@@H]2C[C@@H]2C2CCN(c3nc(C(C)C)no3)CC2)cc1F [Example 144]
3.2 nM | CCc1noc(N2CCC([C@H]3C[C@H]3CCOc3ccc(S(C)(=O)=O)cn3)CC2)n1 [Example 214]
0.3 nM | CC1(OC(=O)N2CCC([C@H]3C[C@H]3CCOc3ccc(-n4cnnn4)cc3)CC2)CCC1 [Example 10]
2.6 nM | Cc1nc2c(s1)CN(C(=O)Cc1ccc(OCC[C@@H]3C[C@@H]3C3CCN(c4nc(C(C)C)no4)CC3)cc1F)CC2 [Example 179]
